Drawing on patent publication US20160130278A1 (TAISHO PHARMACEUTICAL CO., LTD, priority 2013, published 2016), this text covers IC50 for 25 compounds.

The target of this assay is T1, human type 1 glycine transporter (GlyT1) (Homo sapiens, UniProt P48067).
T1 construct: T98G cells (glioma cells) expressing human type 1 glycine transporter (GlyT1) were used
T1 sequence (P48067 1-706): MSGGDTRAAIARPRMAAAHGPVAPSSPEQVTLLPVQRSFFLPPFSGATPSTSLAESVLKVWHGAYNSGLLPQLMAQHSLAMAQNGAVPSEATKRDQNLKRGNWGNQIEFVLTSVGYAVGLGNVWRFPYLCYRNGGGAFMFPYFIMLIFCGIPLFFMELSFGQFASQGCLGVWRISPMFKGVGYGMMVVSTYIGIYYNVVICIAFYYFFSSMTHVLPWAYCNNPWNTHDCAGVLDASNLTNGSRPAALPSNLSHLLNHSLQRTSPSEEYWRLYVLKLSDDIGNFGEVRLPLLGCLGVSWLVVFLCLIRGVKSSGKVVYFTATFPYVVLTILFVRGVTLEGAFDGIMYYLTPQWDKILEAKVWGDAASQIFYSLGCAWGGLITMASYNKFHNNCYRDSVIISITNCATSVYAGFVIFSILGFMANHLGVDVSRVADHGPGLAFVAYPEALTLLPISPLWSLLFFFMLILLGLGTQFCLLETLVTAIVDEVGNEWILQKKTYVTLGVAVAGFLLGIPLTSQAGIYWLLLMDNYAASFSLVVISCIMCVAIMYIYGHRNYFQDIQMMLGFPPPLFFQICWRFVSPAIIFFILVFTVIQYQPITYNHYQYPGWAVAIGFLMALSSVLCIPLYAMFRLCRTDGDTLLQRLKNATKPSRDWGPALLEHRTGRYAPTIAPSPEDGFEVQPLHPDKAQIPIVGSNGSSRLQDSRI
The experiment in a line: Glycine uptake inhibition experiment ([3H]glycine uptake). The format is cell-based. The conditions noted are these: GlyT1. Summed up: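 T98G glioma cells expressing human GlyT1 were pretreated 10 min with compound in HEPES buffer pH 7.4 (0.2% BSA), then incubated with compound plus 250 nM final [3H]glycine for 15 min at room temperature. Intracellular radioactivity was counted after NaOH lysis; 10 μM ALX5407 defined non-specific uptake. IC50 came from 10^−9–10^−5 M curves.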

Regarding `O=C(NC(c1cccc(-c2cccnc2)c1)C1(O)CCCCC1)c1nccc(C(F)(F)F)c1Cl` (single isomer, unassigned) [Compound 28, 3-chloro-N-{(1-hydroxycyclohexyl)[3-(pyridin-3-yl)phenyl]methyl}-4-(trifluoromethyl)pyridine-2-carboxamide], the IC50 turned out to be 20 nM.

On to `O=C(NC(c1cc(Cl)ccn1)[C@]1(O)CC[C@@H](F)CC1)c1nccc2ccccc12` (single isomer, unassigned) [Compound 334, N-[(4-chloropyridin-2-yl)(cis-4-fluoro-1-hydroxycyclohexyl)methyl]isoquinoline-1-carboxamide], for which the IC50 stood at 900 nM. This IC50 is about 45-fold higher than that of the compound before.

Take `CCn1cc(-c2cccc(C(NC(=O)c3c(Cl)ccc(C(F)(F)F)c3Cl)C3(O)CCC(F)(F)CC3)c2)cn1` (stereo not shown) [Compound 123, 2,6-dichloro-N-{(4,4-difluoro-1-hydroxycyclohexyl)[3-(1-ethyl-1H-pyrazol-4-yl)phenyl]methyl}-3-(trifluoromethyl)benzamide]: inhibition was half-maximal at 280 nM (IC50).

With `CC(C)n1cc(-c2cccc(C(NC(=O)c3nccc(C(F)(F)F)c3Cl)C3(O)CCC(F)(F)CC3)c2)cn1` (single isomer, unassigned) [Compound 133, 3-chloro-N-[(4,4-difluoro-1-hydroxycyclohexyl){3-[1-(propan-2-yl)-1H-pyrazol-4-yl]phenyl}methyl]-4-(trifluoromethyl)pyridine-2-carboxamide], the half-maximal inhibitory concentration (IC50) came to 3500 nM. Against the preceding compound, the IC50 is about 12-fold higher.

`O=C(NC(c1cccc(F)c1Cl)[C@]1(O)CC[C@@H](F)CC1)c1cccnc1-n1cccn1` (single isomer, unassigned) [Compound 268, N-[(2-chloro-3-fluorophenyl)(cis-4-fluoro-1-hydroxycyclohexyl)methyl]-2-(1H-pyrazol-1-yl)pyridine-3-carboxamide] returned an IC50 of 1700 nM.

`O=C(NC(c1cccc(F)c1)C1(O)CCCC1)c1nccc(C(F)(F)F)c1Cl` (single isomer, unassigned) [Compound 53, 3-chloro-N-[(3-fluorophenyl)(1-hydroxycyclopentyl)methyl]-4-(trifluoromethyl)pyridine-2-carboxamide] returned a half-maximal inhibitory concentration (IC50) of 1500 nM.

The compound `O=C(N[C@@H](c1cccc(Br)c1)[C@]1(O)CC[C@@H](F)CC1)c1nccc(C(F)(F)F)c1Cl` [Compound 110, N-[(S)-(3-bromophenyl)(cis-4-fluoro-1-hydroxycyclohexyl)methyl]-3-chloro-4-(trifluoromethyl)pyridine-2-carboxamide] displayed an IC50 of 95 nM.

In turn, `O=C(NC(c1cccc(F)c1Cl)[C@]1(O)CC[C@@H](F)CC1)c1ccc(C(F)(F)F)cc1-n1nccn1` (single isomer, unassigned) [Compound 380, N-[(2-chloro-3-fluorophenyl)(cis-4-fluoro-1-hydroxycyclohexyl)methyl]-2-(2H-1,2,3-triazol-2-yl)-4-(trifluoromethyl)benzamide] yielded an IC50 of 270 nM.

In turn, `O=C(NC(c1cccc(F)c1Cl)[C@]1(O)CC[C@@H](F)CC1)c1cc(C(F)(F)F)cnc1Cl` (single isomer, unassigned) [Compound 317, 2-chloro-N-[(2-chloro-3-fluorophenyl)(cis-4-fluoro-1-hydroxycyclohexyl)methyl]-5-(trifluoromethyl)pyridine-3-carboxamide] yielded an IC50 of 150 nM. This IC50 is about 1.8-fold lower than that of the compound before.

`O=C(NC(c1cccnc1Cl)C1(O)CCC(F)(F)CC1)c1cc(C(F)(F)F)ncc1Cl` (single isomer, unassigned) [Compound 342, 5-chloro-N-[(2-chloropyridin-3-yl)(4,4-difluoro-1-hydroxycyclohexyl)methyl]-2-(trifluoromethyl)pyridine-4-carboxamide] showed an IC50 of 1200 nM. This IC50 is about 8-fold higher than that of the compound before.

On to `O=C(NC(c1cccc(F)c1Cl)[C@]1(O)CC[C@@H](F)CC1)c1nc(Cl)ccc1Cl` (single isomer, unassigned) [Compound 279, 3,6-dichloro-N-[(2-chloro-3-fluorophenyl)(cis-4-fluoro-1-hydroxycyclohexyl)methyl]pyridine-2-carboxamide], for which half-maximal inhibition (IC50) was put at 3900 nM.

With `O=C(NC(c1cccc(Cl)n1)C1(O)CCC(F)(F)CC1)c1cc(C(F)(F)F)cnc1Cl` (single isomer, unassigned) [Compound 354, 2-chloro-N-[(6-chloropyridin-2-yl)(4,4-difluoro-1-hydroxycyclohexyl)methyl]-5-(trifluoromethyl)pyridine-3-carboxamide], the IC50 stood at 220 nM. This IC50 is about 18-fold lower than that of the compound before.

For `O=C(NC(c1ccccc1)[C@]1(O)CC[C@@H](F)CC1)c1nccc(C(F)(F)F)c1Cl` (single isomer, unassigned) [Compound 238, 3-chloro-N-[(cis-4-fluoro-1-hydroxycyclohexyl)(phenyl)methyl]-4-(trifluoromethyl)pyridine-2-carboxamide], it took 220 nM to reach half-maximal inhibition (IC50).

Compound `CCn1cc(-c2cccc(C(NC(=O)c3cc(C(F)(F)F)ccc3C)C3(O)CCC(F)(F)CC3)c2)cn1` (stereo not shown) [Compound 179, N-{(4,4-difluoro-1-hydroxycyclohexyl)[3-(1-ethyl-1H-pyrazol-4-yl)phenyl]methyl}-2-methyl-5-(trifluoromethyl)benzamide] came in with an IC50 of 610 nM.

As to `O=C(NC(c1cccc(Cl)c1)[C@]1(O)CC[C@@H](F)CC1)c1nccc(C(F)(F)F)c1Cl` (stereo partly drawn) [Compound 153, 3-chloro-N-[(3-chlorophenyl)(cis-4-fluoro-1-hydroxycyclohexyl)methyl]-4-(trifluoromethyl)pyridine-2-carboxamide], half-maximal inhibition (IC50) required 98 nM.

Compound `O=C(NC(c1cccc(F)c1Cl)[C@]1(O)CC[C@@H](F)CC1)c1ncc(Cl)cc1C(F)(F)F` (single isomer, unassigned) [Compound 316, 5-chloro-N-[(2-chloro-3-fluorophenyl)(cis-4-fluoro-1-hydroxycyclohexyl)methyl]-3-(trifluoromethyl)pyridine-2-carboxamide] showed an IC50 of 5800 nM.

`O=C(NC(c1cccc(Cl)c1)C1(O)CCC(O)C1)c1nccc(C(F)(F)F)c1Cl` (stereo not shown) [Compound 128, 3-chloro-N-[(3-chlorophenyl)(1,3-dihydroxycyclopentyl)methyl]-4-(trifluoromethyl)pyridine-2-carboxamide]: the midpoint of inhibition, the IC50, lay at 1100 nM. This IC50 lies about 5.3-fold lower than the previous one.

`O=C(NC(c1ccccc1F)C1(O)CCC(F)(F)CC1)c1nccc(C(F)(F)F)c1Cl` (single isomer, unassigned) [Compound 237] had an IC50 of 250 nM.

On to `O=C(NC(c1cccc(F)c1Cl)[C@]1(O)CC[C@@H](F)CC1)c1cccc(Cl)c1Cl` (single isomer, unassigned) [Compound 248, 2,3-dichloro-N-[(2-chloro-3-fluorophenyl)(cis-4-fluoro-1-hydroxycyclohexyl)methyl]benzamide], for which the IC50 turned out to be 900 nM.

In turn, `CC(=O)c1ccc(-c2cccc(C(NC(=O)c3cccc(C(F)(F)F)c3Cl)C3(O)CCCC3)c2)cc1` (stereo not shown) [Compound 6, N-[(4′-acetylbiphenyl-3-yl)(1-hydroxycyclopentyl)methyl]-2-chloro-3-(trifluoromethyl)benzamide] gave an IC50 of 670 nM.

Regarding `CS(=O)(=O)c1ccc(C(F)(F)F)cc1C(=O)NC(c1cccc(F)c1Cl)[C@]1(O)CC[C@@H](F)CC1` (single isomer, unassigned) [Compound 372, N-[(2-chloro-3-fluorophenyl)(cis-4-fluoro-1-hydroxycyclohexyl)methyl]-2-(methylsulfonyl)-5-(trifluoromethyl)benzamide], it took 41 nM to reach half-maximal inhibition (IC50).

Compound `O=C(NC(c1cccc(F)n1)C1(O)CCC(F)(F)CC1)c1ccnc(C(F)(F)F)c1Cl` (single isomer, unassigned) [Compound 359, 3-chloro-N-[(4,4-difluoro-1-hydroxycyclohexyl)(6-fluoropyridin-2-yl)methyl]-2-(trifluoromethyl)pyridine-4-carboxamide] showed a 50% inhibitory concentration (IC50) of 250 nM.

Regarding `O=C(NC(c1cccc(-c2cccnc2)c1)C1(O)CCCC1)c1cccc(C(F)(F)F)c1Cl` (stereo not shown) [Compound 3, 2-chloro-N-{(1-hydroxycyclopentyl)[3-(pyridin-3-yl)phenyl]methyl}-3-(trifluoromethyl)benzamide], half-maximal inhibition (IC50) required 360 nM.

For `Cc1cccc(C(NC(=O)c2nccc(C(F)(F)F)c2Cl)C2(O)CCCC2)c1` (single isomer, unassigned) [Compound 56, 3-chloro-N-[(1-hydroxycyclopentyl)(3-methylphenyl)methyl]-4-(trifluoromethyl)pyridine-2-carboxamide], the midpoint of inhibition, the IC50, lay at 240 nM.

Compound `CCn1cc(-c2cccc(C(NC(=O)c3ccnc(Cl)c3Cl)C3(O)CCC(F)(F)CC3)c2)cn1` (stereo not shown) [Compound 173, 2,3-dichloro-N-{(4,4-difluoro-1-hydroxycyclohexyl)[3-(1-ethyl-1H-pyrazol-4-yl)phenyl]methyl}pyridine-4-carboxamide] yielded an IC50 of 1000 nM.

One may read the IC50 as the point on the concentration scale where inhibition reaches its midpoint. A higher IC50 goes with lower potency.
